Values quoted from earlier work in publication PMC6151383 (Molecules : A Journal of Synthetic Chemistry and Natural …, 2017).

System: Staphylococcus aureus, including a methicillin-resistant strain (MRSA), M. tuberculosis and Mycobacterium avium
Details: range over S. aureus; cited from earlier work

In the case of `O=S(=O)(Nc1ncccn1)c1ccc(N=Cc2cc(Cl)ccc2O)cc1` [Compound 2c, 4-[(5-Chloro-2-hydroxybenzylidene)amino]-N-(pyrimidin-2-yl)benzenesulfonamide], the MIC values is given as 125 to 250 µM.
